Experimental data: patent US20250129049A1, “1H-PYRAZOLE-3-AMINE DERIVATIVE HAVING BICYCLIC BACKBONE” (Sumitomo Pharma Co., Ltd., priority 2021, published 2025)

Legend:
CHK1 kinase = CHK1 kinase (Homo sapiens (Human), UniProt O14757)
ES-2 cells = experiment: Cell growth suppression experiment (ES-2); assay type: cell-based; details: Homo sapiens, 48 h, cultured 2 days, CellTiter-Glo 3D
Method: ES-2 cells were obtained from the American Type Culture Collection (ATCC). These cells were cultured at 37° C. in the presence of 5% CO2 in a McCoy's 5a medium containing 10% fetal bovine serum and 1% penicillin/streptomycin.
500 cells were seeded for each well in a 384-well plate, and the evaluated compound was added to the final DMSO concentration of 0.1% to culture the cells for 2 days. After completion of the culture, the cell viability rate was calculated using CellTiter-Glo (registered trademark) 3D Reagent (Promega, G968B).

Sequence of CHK1 kinase (O14757 whole entry): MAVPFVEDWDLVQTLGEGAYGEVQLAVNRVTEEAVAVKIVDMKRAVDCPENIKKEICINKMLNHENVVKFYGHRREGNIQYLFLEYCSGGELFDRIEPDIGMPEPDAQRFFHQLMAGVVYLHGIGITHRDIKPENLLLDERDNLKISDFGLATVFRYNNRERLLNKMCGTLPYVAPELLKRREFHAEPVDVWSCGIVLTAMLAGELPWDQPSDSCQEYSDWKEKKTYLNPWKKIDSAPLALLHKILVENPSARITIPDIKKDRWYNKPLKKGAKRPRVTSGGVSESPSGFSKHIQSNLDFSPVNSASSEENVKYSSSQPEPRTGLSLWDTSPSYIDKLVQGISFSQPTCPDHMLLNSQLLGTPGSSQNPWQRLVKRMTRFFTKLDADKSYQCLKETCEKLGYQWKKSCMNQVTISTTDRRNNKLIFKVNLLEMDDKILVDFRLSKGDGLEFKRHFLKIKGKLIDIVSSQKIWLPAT

Structure (SMILES)	IC50 (CHK1 kinase) [nM]	IC50 (ES-2 cells) [nM]
N#Cc1cnc(Nc2cc(-c3c(OCC4(F)CNC4)cnc4c3OCC4)[nH]n2)cn1 [Example 23, 5-[(5-{6-[(3-fluoroazetidin-3-yl)methoxy]-2,3-dihydrofuro[3,2-b]pyridin-7-yl}-1H-pyrazol-3-yl)amino]pyrazine-2-carbonitrile]	0.3	6.8
N#Cc1cnc(Nc2cc(-c3c(O[C@@H]4CC[C@@H](N)C4)cnc4c3OCC4)[nH]n2)cn1 [Example 21, 5-{[5-(6-{[(1R,3R)-3-aminocyclopentyl]oxy)-2,3-dihydrofuro[3,2-b]pyridin-7-yl)-1H-pyrazol-3-yl]amino}pyrazine-2-carbonitrile]		11.8
CC1(COc2cnc3cccnc3c2-c2cc(Nc3cnc(C#N)cn3)n[nH]2)CNC1 [Example 11, 5-[(5-{3-[(3-methylazetidin-3-yl)methoxy]-1,5-naphthyridin-4-yl}-1H-pyrazol-3-yl)amino]pyrazine-2-carbonitrile]	0.39	14.8
N#Cc1cnc(Nc2cc(-c3c(OCCCN)ccc4ccoc34)[nH]n2)cn1 [Example 2, 5-({5-[6-(3-aminopropoxy)-1-benzofuran-7-yl]-1H-pyrazol-3-yl}amino)pyrazine-2-carbonitrile]	0.25	2.9
CNCCCOc1cnc2c(c1-c1cc(Nc3cnc(C#N)cn3)n[nH]1)OCC2 [Example 27, 5-[(5-{6-[3-(methylamino)propoxy]-2,3-dihydrofuro[3,2-b]pyridin-7-yl}-1H-pyrazol-3-yl)amino]pyrazine-2-carbonitrile]	0.22	8.5
N#Cc1cnc(Nc2cc(-c3c(OCC4(CN)CC4)ccc4ccnn34)[nH]n2)cn1 [Example 17, 5-{[5-(6-{[1-(aminomethyl)cyclopropyl]methoxy)pyrazolo[1,5-a]pyridin-7-yl)-1H-pyrazol-3-yl]amino}pyrazine-2-carbonitrile]	0.27	3.7
N#Cc1cnc(Nc2cc(-c3c(O[C@@H]4CC[C@@H](N)C4)cnc4cccnc34)[nH]n2)cn1 [Example 37, 5-{[5-(3-{[(1R,3R)-3-aminocyclopentyl]oxy}-1,5-naphthyridin-4-yl)-1H-pyrazol-3-yl]amino}pyrazine-2-carbonitrile]	0.49	6.8
N#Cc1cnc(Nc2cc(-c3c(OCC4(CN)CC4)ccc4ccoc34)[nH]n2)cn1 [Example 19, 5-{[5-(6-{[1-(aminomethyl)cyclopropyl]methoxy}-1-benzofuran-7-yl}-1H-pyrazol-3-yl]amino}pyrazine-2-carbonitrile]	0.26	4.6
C=C(CN)COc1cnc2c(c1-c1cc(Nc3cnc(C#N)cn3)n[nH]1)OCC2 [Example 31, 5-{[5-(6-{[2-(aminomethyl)prop-2-en-1-yl]oxy)-2,3-dihydrofuro[3,2-b]pyridin-7-yl)-1H-pyrazol-3-yl]amino}pyrazine-2-carbonitrile]	0.31	13.8
CC1(COc2cnc3c(c2-c2cc(Nc4cnc(C#N)cn4)n[nH]2)OCC3)CNC1 [Example 15, 5-[(5-{6-[(3-methylazetidin-3-yl)methoxy]-2,3-dihydrofuro[3,2-b]pyridin-7-yl}-1H-pyrazol-3-yl)amino]pyrazine-2-carbonitrile]	0.23	7.2
N#Cc1cnc(Nc2cc(-c3c(OCCCN)cnc4c3OCC4)[nH]n2)cn1 [Example 13, 5-({5-[6-(3-aminopropoxy)-2,3-dihydrofuro[3,2-b]pyridin-7-yl]-1H-pyrazol-3-yl}amino)pyrazine-2-carbonitrile]	0.42	20
Cc1nc2ccc(OCCCN)c(-c3cc(Nc4cnc(C#N)cn4)n[nH]3)c2o1 [Example 16, 5-({5-[6-(3-aminopropoxy)-2-methyl-1,3-benzoxazol-7-yl]-1H-pyrazol-3-yl}amino)pyrazine-2-carbonitrile]	0.45	489
N#Cc1cnc(Nc2cc(-c3c(OCCCN)cnc4ccnn34)[nH]n2)cn1 [Example 7, 5-({5-[6-(3-aminopropoxy)pyrazolo[1,5-a]pyrimidin-7-yl]-1H-pyrazol-3-yl}amino)pyrazine-2-carbonitrile]	1.71	469
N#Cc1cnc(Nc2cc(-c3c(OCC4(C(F)F)CNC4)cnc4c3OCC4)[nH]n2)cn1 [Example 22, 5-{[5-(6-{[3-(difluoromethyl)azetidin-3-yl]methoxy}-2,3-dihydrofuro[3,2-b]pyridin-7-yl)-1H-pyrazol-3-yl]amino}pyrazine-2-carbonitrile]	0.39	13.7
N#Cc1cnc(Nc2cc(-c3c(O[C@@H]4CCC[C@H](N)C4)cnc4cccnc34)[nH]n2)cn1 [Example 36, 5-{[5-(3-{[(1R,3S)-3-aminocyclohexyl]oxy}-1,5-naphthyridin-4-yl)-1H-pyrazol-3-yl]amino}pyrazine-2-carbonitrile]	0.46	6
N#Cc1cnc(Nc2cc(-c3c(OCC4(CN)CC4(F)F)ccc4ccoc34)[nH]n2)cn1 (stereo not shown) [Example 20, 5-{[5-(6-{[1-(aminomethyl)-2,2-difluorocyclopropyl]methoxy)-1-benzofuran-7-yl)-1H-pyrazol-3-yl]amino}pyrazine-2-carbonitrile]		16.3
NCCCOc1cnc2c(c1-c1cc(Nc3cnc(Cl)cn3)n[nH]1)OCC2 [Example 32, N-{5-[6-(3-aminopropoxy)-2,3-dihydrofuro[3,2-b]pyridin-7-yl]-1H-pyrazol-3-yl}-5-chloropyrazin-2-amine]	0.33	21.5
N#Cc1cnc(Nc2cc(-c3c(OCC4(CN)CC(F)(F)C4)cnc4cccnc34)[nH]n2)cn1 [Example 38, 5-{[5-(3-{[1-(aminomethyl)-3,3-difluorocyclobutyl]methoxy)-1,5-naphthyridin-4-yl)-1H-pyrazol-3-yl]amino}pyrazine-2-carbonitrile]	0.93	8.1
COC(=O)c1cnc(Nc2cc(-c3c(OCCCN)cnc4c3OCC4)[nH]n2)cn1 [Example 33, methyl 5-({5-[6-(3-aminopropoxy)-2,3-dihydrofuro[3,2-b]pyridin-7-yl]-1H-pyrazol-3-yl}amino)pyrazine-2-carboxylate]	9.28	> 1000
N#Cc1cnc(Nc2cc(-c3c(OCC(F)(F)CN)cnc4cccnc34)[nH]n2)cn1 [Example 9, 5-({5-[3-(3-amino-2,2-difluoropropoxy)-1,5-naphthyridin-4-yl]-1H-pyrazol-3-yl}amino)pyrazine-2-carbonitrile]	0.64	4.7
C[C@@H](Oc1cnc2c(c1-c1cc(Nc3cnc(C#N)cn3)n[nH]1)OCC2)C1CNC1 [Example 25, 5-[(5-{6-[(1R)-1-(azetidin-3-yl)ethoxy]-2,3-dihydrofuro[3,2-b]pyridin-7-yl}-1H-pyrazol-3-yl)amino]pyrazine-2-carbonitrile]	0.43	6.4
CC1(COc2ccc3ccnn3c2-c2cc(Nc3cnc(C#N)cn3)n[nH]2)CNC1 [Example 18, 5-[(5-{6-[(3-methylazetidin-3-yl)methoxy]pyrazolo[1,5-a]pyridin-7-yl)-1H-pyrazol-3-yl)amino]pyrazine-2-carbonitrile]	0.34	4.7
CC1(COc2ccc3c(c2-c2cc(Nc4cnc(C#N)cn4)n[nH]2)OCC3)CNC1 [Example 5, 5-[(5-{6-[(3-methylazetidin-3-yl)methoxy]-2,3-dihydro-1-benzofuran-7-yl}-1H-pyrazol-3-yl)amino]pyrazine-2-carbonitrile]		6.7
